Here are results for 21 molecules from patent US7022856B2, “Carboline derivatives” (LIlly Icos LLC., priority 2001, dated 2006).

The structures appear in SMILES notation.

In one series the target is T1, human recombinant PDE5 (Homo sapiens, UniProt O76074).
T1 construct: host or cells: Saccharomyces cerevisiae strain BJ2-54 (ATCC 74465)
Nature of the series: cGMP-PDE inhibition, one-step assay with human recombinant PDE5. Type of series: biochemical. The conditions noted are these: 0.15 μM 8-[H3]-cGMP, 30 min. As to the method: The compounds of structural formula (I) were tested for an ability to inhibit PDE5. The ability of a compound to inhibit PDE5 activity is related to the IC50 value for the compound, i.e., the concentration of inhibitor required for 50% inhibition of enzyme activity. The IC50 value for compounds pounds of structural formula (I) were determined using recombinant human PDE5.
Recombinant production of human PDE1B, PDE2, PDE4A, PDE4B, PDE4C, PDE4D, PDE5, and PDE7 was carried out similarly to that described in Example 7 of U.S. Pat. No. 5,702,936, incorporated herein by reference, except that the yeast transformation vector employed, which is derived from the basic ADH2 plasmid described in Price et al., Methods in Enzymology, 185, pp. 308–318 (1990), incorporated yeast ADH2 promoter and terminator sequences and the Saccharomyces cerevisiae host was the protease-deficient strain BJ2-54 deposited on Aug. 31, 1998 with the American Type Culture Collection, Manassas, Va., under accession number ATCC 74465. Transformed host cells were grown in 2×SC-leu medium, pH 6.2, with trace metals, and vitamins. After 24 hours, YEP medium-containing glycerol was added to a final concentration of 2×YET/3% glycerol. Approxiately 24 hr later, cells were harvested, washed, and stored at −70° C. […]
Cell pellets (29 g) were thawed on ice with an equal volume of Lysis Buffer (25 mM Tris HCl, pH 8, 5 mM MgCl2, 0.25 mM DTT, 1 mM benzamidine, and 10 μM ZnSO4). Cells were lysed in a Microfluidizer® (Microfluidics Corp.) using nitrogen at 20,000 psi. The lysate was centrifuged and filtered through 0.45 μm disposable filters. The filtrate was applied to a 150 mL column of Q SEPHAROSE® Fast-Flow (Pharmacia). The column was washed with 1.5 volumes of Buffer A (20 mM Bis-Tris Propane, pH 6.8, 1 mM MgCl2, 0.25 mM DTT, 10 μM ZnSO4) and eluted with a step gradient of 125 mM NaCl in Buffer A followed by a linear gradient of 125–1000 mM NaCl in Buffer A. Active fractions from the linear gradient were applied to a 180 mL hydroxyapatite column in Buffer B (20 mM Bis-Tris Propane (pH 6.8), 1 mM MgCl2, 0.25 mM DTT, 10 μM ZnSO4, and 250 mM KCl). After loading, the column was washed with 2 volumes of Buffer B and eluted with a linear gradient of 0–125 mM potassium phosphate in Buffer B. Active fractions were pooled, precipitated with 60% ammonium sulfate, and resuspended in Buffer C (20 mM Bis-Tris Propane, pH 6.8, 125 mM NaCl, 0.5 mM DTT, and 10 μM ZnSO4). The pool was applied to a 140 mL column of SEPHACRYL® S-300 HR and eluted with Buffer C. Active fractions were diluted to 50% glycerol and stored at −20° C.
(§1) cGMP-PDE activity of compounds of the present invention was measured using a one-step assay adapted from Wells et al., Biochim. Biophys. Acta, 384, 430 (1975). The reaction medium contained 50 mM Tris-HCl, pH 7.5, 5 mM magnesium acetate. 250 μg/ml 5′-Nucleotidase, 1 mM EGTA, and 0.15 μM 8-[H^3]-cGMP. Unless otherwise indicated, the enzyme used was a human recombinant PDE5 (ICOS Corp., Bothell, Wash.).
(§2) Compounds of the invention were dissolved in DMSO finally present at 2% in the assay.
For the molecule `O=C(c1ccc2ccccc2c1)N1CCc2c([nH]c3ccccc23)C1c1ccc2c(c1)OCO2` (stereo not drawn) [Example 1, 1-(2H-Benzo[d]1,3-dioxolan-5-yl)(1,2,3,4-tetrahydro-β-carbolin-2-yl)-2-naphthyl ketone], the IC50 worked out at 566 nM. On the same count and under the same terms, then `O=C(c1ccc2ccccc2c1)N1CCc2c([nH]c3ccccc23)[C@H]1c1ccc2c(c1)OCO2` [Example 2, 1-(2H-benzo[d]1,3-dioxolan-5-yl)(1R)(1,2,3,4-tetrahydro-β-carbolin-2-yl)2-naphthyl ketone], with 710 nM; and `Cc1c(S(=O)(=O)N2CCc3c([nH]c4ccccc34)[C@H]2c2ccc3c(c2)OCO3)sc2ccc(Cl)cc12` [Example 45], with 220 nM. For the molecule `c1cncc(-c2cc(N3CCc4c([nH]c5ccccc45)C3c3ccc4c(c3)CCO4)ncn2)c1` (stereo not drawn) [Example 77], the IC50 was 4 nM. Regarding `Cc1nccn1-c1ccnc(N2CCc3c([nH]c4ccccc34)C2c2ccc3c(c2)CCO3)n1` (stereo not drawn) [Example 78], the IC50 stood at 60 nM. For the molecule `COc1ccc(-c2cc(N3CCc4c([nH]c5ccccc45)C3c3ccc4c(c3)CCO4)ncn2)cc1` (stereo not drawn) [Example 79], the IC50 came out at 4 nM. With `Oc1ccc(-c2cc(N3CCc4c([nH]c5ccccc45)C3c3ccc4c(c3)CCO4)ncn2)cc1` (stereo not drawn) [Example 80], the IC50 is 50 nM. Take `CC(=O)Oc1ccc(-c2cc(N3CCc4c([nH]c5ccccc45)C3c3ccc4c(c3)CCO4)ncn2)cc1` (stereo not drawn) [Example 81]: the 50% inhibitory concentration (IC50) was 3 nM. `CN(C)CCOc1ccc(-c2cc(N3CCc4c([nH]c5ccccc45)C3c3ccc4c(c3)CCO4)ncn2)cc1` (stereo not drawn) [Example 82]: the concentration for half-maximal inhibition (IC50) came out at 5 nM. For `Cc1ccc(C2c3[nH]c4ccccc4c3CCN2C(=O)c2cc3ccccc3s2)cc1` (stereo not drawn) [Example 83], the IC50 is 82 nM. The same measure, in the same setting: for `O=C(c1cc2ccccc2s1)N1CCc2c([nH]c3ccccc23)C1c1ccc2c(c1)OCO2` (stereo not drawn) [Example 84] the value was 309 nM; for `O=C(c1cc2ccccc2s1)N1CCc2c([nH]c3ccccc23)C1c1cccc(Cl)c1` (stereo not drawn) [Example 85], 835 nM; for `O=C(c1cc2ccccc2s1)N1CCc2c([nH]c3ccccc23)C1c1ccccc1` (stereo not drawn) [Example 86], 900 nM. Regarding `c1ccc2c3c([nH]c2c1)C(c1ccc2c(c1)OCO2)N(c1nccc(N2CCOCC2)n1)CC3` (stereo not drawn) [Example 87], the half-maximal inhibitory concentration (IC50) is 1010 nM.

Tested on in another series: not given
Assay: not given
Conditions: not given
Molecule `O=C(c1ccc2ccccc2c1)N1CCc2c([nH]c3ccccc23)C1c1ccc2c(c1)OCO2` (stereo not drawn) [Example 1, 1-(2H-Benzo[d]1,3-dioxolan-5-yl)(1,2,3,4-tetrahydro-β-carbolin-2-yl)-2-naphthyl ketone] displayed a melting point of 248 to 249 °C. With `O=C(c1ccc2ccccc2c1)N1CCc2c([nH]c3ccccc23)[C@H]1c1ccc2c(c1)OCO2` [Example 2, 1-(2H-benzo[d]1,3-dioxolan-5-yl)(1R)(1,2,3,4-tetrahydro-β-carbolin-2-yl)2-naphthyl ketone], the melting point was found to be 285 °C. Still for that read-out and setting: then `Cc1c(S(=O)(=O)N2CCc3c([nH]c4ccccc34)[C@H]2c2ccc3c(c2)OCO3)sc2ccc(Cl)cc12` [Example 45], with 139 to 143 °C.

A further series concerns the target T2, PDE5 (bovine aorta) (Bos taurus, UniProt Q28156).
T2 construct: from tissue; host or cells: bovine aorta
Nature of the series: cGMP-PDE inhibition, one-step assay, enzyme from bovine aorta. The conditions noted are these: versus bovine aorta (footnote 1). Type of series: biochemical. As to the method:
as §1, §2
Take `O=C(c1ccccc1)N1CCc2c([nH]c3ccccc23)C1c1ccc2c(c1)OCO2` (stereo not drawn) [Example 3]: inhibition was half-maximal at 440 nM (IC50). Molecule `CC(=O)Nc1ccc(C(=O)N2CCc3c([nH]c4ccccc34)C2c2ccc3c(c2)OCO3)cc1` (stereo not drawn) [Example 4, N-{4[1-(1-Benzo[1,3]dioxol-5-yl-1,3,4,9-tetrahydro-β-carboline-2-yl)-methanoyl]phenyl}acetamide] showed a half-maximal inhibitory concentration (IC50) of 50 nM.

On to `O=C(c1ccc2nc[nH]c2c1)N1CCc2c([nH]c3ccccc23)C1c1ccc2c(c1)OCO2` (stereo not drawn) [Example 12, 1-(1-Benzo[1,3]dioxol-5-yl-1,3,4,9-tetrahydro-β-carbolin-2-yl)-1-(3H-benzoimidazol-5-yl)methanone], for which the IC50 stood at 180 nM. For the molecule `O=C(c1cc2ccccc2s1)N1CCc2c([nH]c3ccccc23)C1c1ccc(C(F)(F)F)cc1` (stereo not drawn) [Example 14], the IC50 was found to be 200 nM.

The molecule `O=C(c1ccc(-c2ccccn2)s1)N1CCc2c([nH]c3ccccc23)C1c1ccccc1` (stereo not drawn) [Example 15] registered a half-inhibitory concentration (IC50) of 1 nM. Regarding `CC(=O)Nc1ccc(C2c3[nH]c4ccccc4c3CCN2C(=O)c2cc3ccccc3s2)cc1` (stereo not drawn) [Example 16], it took 70 nM to reach half-maximal inhibition (IC50). On to `O=C(c1ccc(-c2ccccn2)s1)N1CCc2c([nH]c3ccccc23)C1c1ccc2c(c1)OCO2` (stereo not drawn) [Example 17], for which half-maximal inhibition (IC50) required 250 nM.

Usually IC50 stands for the concentration that inhibits the measured activity by half. By melting point is commonly meant the temperature of the solid-liquid transition.
